Laboratory results from patent publication US10226409B2, “Pyruvate and related α-keto carboxylates as novel adjuvants in the treatment of post tooth whitening sensitivity and the tissue protective effect of pyruvate on the oral soft tissue” (priority 2016, dated 2019).

Key:
[1] = In-office laser tooth whitening, desensitizer applied post treatment: tooth sensitivity; assay type: in vivo, human; conditions: for duration of tooth sensitivity: confirmed by follow up phone calls; for subjects experiencing tooth sensitivity after application of the desensitizer: 5 subjects per group
Text: In-office laser tooth whitening procedure using Biolase EZ lase, 7W diode laser, and the LaserWhite *20 whitening gel kit.
A total of 15 candidates were selected and screened (for the presence of active decay, faulty restorations, cervical abrasion and attrition, enamel cracks) for the whitening procedure.
The arch has been divided in 4 quadrants, K1 (upper right), K2 (upper left), K3 (lower left), K4 (lower right).
The amount of 400 Jules has been applied per quadrant per application, in two separate applications. (total of 800 Jules per quadrant).
The candidates were assigned to 3 groups.
Group 1 is considered the control (C1), receiving desensitizer (post treatment) containing potassium nitrate.
Group 2, a second control group (C2), received as desensitizer (post treatment) stannous fluoride.
Group 3 (C3) received as desensitizer sodium pyruvate 99% in crystalline form. (applied over the gingival, gingival margin and DEJ).

[2] = cited from earlier work
[3] = test system: mammalian cellular systems; conditions: applied exogenously in concentrations up to about 10 mM, short term studies; cited from earlier work
[4] = test system: human and bovine endothelial cells; conditions: cited from earlier work
[5] = test system: isolated liver mitochondria; conditions: 1 mM pyruvate; cited from earlier work
isolated cardiomyocytes = conditions: 1-10 millimolar; cited from earlier work
oxidative stress = conditions: cited from earlier work
[6] = intracoronary; cited from earlier work
[7] = cardioplegia; cited from earlier work
[8] = Gingival lesions after tooth whitening, treated only with sodium pyruvate; assay type: in vivo, human
Text: In addition, overall 6 patients presented with gingival lesions, manifested by burning sensation on the gingival margin, and visually expressed by white areas on the gingival margin.

[9] = R. Bünger et al., unpublished observations; cited from earlier work

Compound: O=[N+]([O-])[O-].[K+] [potassium nitrate]
- duration of tooth sensitivity [1]: up to 24 hours
- subjects experiencing tooth sensitivity after application of the desensitizer ([1]; end of whitening procedure): 3 out of 5

Compound: CC(=O)C(=O)O [pyruvate]
- rate constant of scavenging of peroxynitrite ([2]; pH 7.4, 37° C.): 88 to 100 mol⁻¹ s⁻¹
- reaction with peroxynitrite faster than with H2O2 ([2]; physiological pyruvate anion): about 40 times
- speed of reaction with peroxynitrite relative to that with H2O2 ([2]; pyruvate decarboxylates to acetate): about one order of magnitude faster
- cytotoxicity [3]: virtually no or little cytotoxicity
- bc1-2/bax ratio ([4]; 30 min pulse of 0.5 mM H2O2): increasing the bc1-2/bax ratio
- cellular glutathione pool ([4]; 30 min pulse of 0.5 mM H2O2): stabilizing the cellular glutathione pool
- cellular viability and survival ([4]; 30 min pulse of 0.5 mM H2O2): dose-dependently enhanced cellular viability and survival
- phosphorylated p38 mitogen activated kinase ([4]; H2O2-treated endothelial cells): prevented the accumulation of phosphorylated p38 mitogen activated kinase
- phosphorylation of ERK1/2 ([4]; H2O2-treated endothelial cells): transiently increased phosphorylation of ERK1/2
- dissociation of cytochrome C [5]: prevented the dissociation of cytochrome C
- expression of antiapoptotic bc1-2 [5]: enhanced expression of antiapoptotic bc1-2
- mitochondrial respiration [5]: stabilized respiration
- calcium transients (isolated cardiomyocytes): improves the calcium transients
- cytotoxicity (isolated cardiomyocytes): without apparent cytotoxicity
- mitochondrial stability and mitochondrial Δϕ (isolated cardiomyocytes): increases mitochondrial stability and mitochondrial Δϕ
- pyruvate level of optimum efficacy (oxidative stress): 2 to 5 mM
- pyruvate level required for beneficial effects (oxidative stress): ≥ 0.5 mM
- efficacy [6]: beneficial efficacy
- toxicity [6]: no obvious toxicity
- mortality and morbidity [7]: reduced mortality and morbidity

Compound: [13CH3][13C](=O)C(=O)[O-].[Na+] [sodium pyruvate, α-Ketopropionic acid-2,3-13C2 sodium salt]
- duration of tooth sensitivity [1]: ≤ 24 h
- subjects experiencing tooth sensitivity after application of the desensitizer ([1]; end of whitening procedure): 1 of 5
- burning sensation on the gingival margin ([8]; 6 patients with gingival lesions, treated only with sodium pyruvate): immediate relieve of the burning sensation
- visual inspection of the gingiva ([8]; previously discolored (white) site on the gingival margin): normal appearance of the gingiva
- stability [9]: relative stability
- water solubility [9]: high water solubility

Compound: [F][Sn][F] [stannous fluoride]
- duration of tooth sensitivity [1]: over 24 hours
- members of the group experiencing tooth sensitivity ([1]; end of whitening procedure): 100%
